In ChEMBL document CHEMBL1201862, “PubChem BioAssay data set” (2004):
Blank lines part the entries; values can stand above or below the compound they belong to. Active and inactive are the calls of the source. Rule as the data show it, for most assays here: actives have a measured IC50 and inactives only a lower limit.

Legend:
[1] = target: T1, Sentrin-specific protease 6 (Homo sapiens, UniProt Q9GZR1); type: functional
T1 sequence (Q9GZR1 whole entry): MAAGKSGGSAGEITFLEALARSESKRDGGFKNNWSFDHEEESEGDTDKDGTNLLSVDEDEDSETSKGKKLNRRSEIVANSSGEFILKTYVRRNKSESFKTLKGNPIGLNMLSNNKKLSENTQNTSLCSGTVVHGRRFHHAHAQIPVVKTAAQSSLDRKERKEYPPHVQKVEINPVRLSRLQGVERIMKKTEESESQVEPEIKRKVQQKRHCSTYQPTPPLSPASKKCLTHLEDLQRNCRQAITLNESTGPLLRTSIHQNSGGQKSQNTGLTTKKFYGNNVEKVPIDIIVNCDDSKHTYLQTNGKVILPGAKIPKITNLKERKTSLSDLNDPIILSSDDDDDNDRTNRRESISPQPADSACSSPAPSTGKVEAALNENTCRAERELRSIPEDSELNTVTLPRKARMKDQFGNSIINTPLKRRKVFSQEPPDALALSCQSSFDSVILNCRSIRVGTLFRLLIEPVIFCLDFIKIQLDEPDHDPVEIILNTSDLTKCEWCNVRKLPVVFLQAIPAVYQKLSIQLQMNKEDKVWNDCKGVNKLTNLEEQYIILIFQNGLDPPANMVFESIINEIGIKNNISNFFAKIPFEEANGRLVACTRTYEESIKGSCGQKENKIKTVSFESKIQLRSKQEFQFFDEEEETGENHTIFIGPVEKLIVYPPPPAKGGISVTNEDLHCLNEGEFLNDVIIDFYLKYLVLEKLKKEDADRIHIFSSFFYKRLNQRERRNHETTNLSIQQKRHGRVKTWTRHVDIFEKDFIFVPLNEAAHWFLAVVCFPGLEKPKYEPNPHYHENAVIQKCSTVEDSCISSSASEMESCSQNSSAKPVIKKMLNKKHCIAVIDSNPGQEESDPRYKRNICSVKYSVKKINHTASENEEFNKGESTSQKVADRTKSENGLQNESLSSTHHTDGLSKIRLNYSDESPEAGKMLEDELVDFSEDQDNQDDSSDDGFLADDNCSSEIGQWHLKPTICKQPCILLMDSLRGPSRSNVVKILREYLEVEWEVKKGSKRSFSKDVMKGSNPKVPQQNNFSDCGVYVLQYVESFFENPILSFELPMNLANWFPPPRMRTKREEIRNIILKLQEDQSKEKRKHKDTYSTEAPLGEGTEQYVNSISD

[2] = target: T2, Sentrin-specific protease 7 (Homo sapiens, UniProt Q9BQF6); type: functional;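 also: Luminescence-based dose-response confirmation of ultra-high-throughput screening hits, measuring inhibition of SENP7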
T2 sequence (Q9BQF6 whole entry): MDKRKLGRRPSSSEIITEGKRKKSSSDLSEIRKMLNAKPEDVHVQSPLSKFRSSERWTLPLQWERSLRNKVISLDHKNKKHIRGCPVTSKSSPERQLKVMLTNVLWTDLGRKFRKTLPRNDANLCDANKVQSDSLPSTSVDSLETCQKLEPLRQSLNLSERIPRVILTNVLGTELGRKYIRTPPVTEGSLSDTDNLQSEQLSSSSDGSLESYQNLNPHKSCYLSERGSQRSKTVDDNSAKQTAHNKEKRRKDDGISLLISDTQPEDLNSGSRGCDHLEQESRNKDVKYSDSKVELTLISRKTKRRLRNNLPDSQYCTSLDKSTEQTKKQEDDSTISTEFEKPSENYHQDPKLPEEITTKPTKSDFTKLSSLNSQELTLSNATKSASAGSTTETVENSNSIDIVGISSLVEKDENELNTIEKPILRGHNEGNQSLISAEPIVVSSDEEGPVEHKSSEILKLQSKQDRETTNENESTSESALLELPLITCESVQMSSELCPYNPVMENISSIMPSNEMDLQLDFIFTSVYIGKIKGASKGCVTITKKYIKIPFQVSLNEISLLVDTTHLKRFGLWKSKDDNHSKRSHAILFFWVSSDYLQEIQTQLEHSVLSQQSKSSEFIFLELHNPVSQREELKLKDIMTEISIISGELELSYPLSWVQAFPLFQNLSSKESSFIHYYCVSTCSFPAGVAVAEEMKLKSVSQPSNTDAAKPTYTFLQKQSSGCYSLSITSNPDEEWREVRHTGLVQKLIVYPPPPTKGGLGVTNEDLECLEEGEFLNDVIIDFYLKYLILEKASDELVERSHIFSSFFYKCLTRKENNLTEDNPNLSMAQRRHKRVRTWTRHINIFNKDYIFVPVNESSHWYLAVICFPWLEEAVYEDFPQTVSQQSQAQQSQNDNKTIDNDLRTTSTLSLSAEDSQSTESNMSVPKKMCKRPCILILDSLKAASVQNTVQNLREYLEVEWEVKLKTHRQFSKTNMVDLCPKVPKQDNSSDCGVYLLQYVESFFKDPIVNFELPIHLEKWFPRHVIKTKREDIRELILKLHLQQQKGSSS

[3] = target: T3, Sentrin-specific protease 8 (Homo sapiens, UniProt Q96LD8); assay: SENP8 protease inhibitors, SAR follow-up, biochemical, luminescence (AID 504501); type: functional
T3 sequence (Q96LD8 whole entry): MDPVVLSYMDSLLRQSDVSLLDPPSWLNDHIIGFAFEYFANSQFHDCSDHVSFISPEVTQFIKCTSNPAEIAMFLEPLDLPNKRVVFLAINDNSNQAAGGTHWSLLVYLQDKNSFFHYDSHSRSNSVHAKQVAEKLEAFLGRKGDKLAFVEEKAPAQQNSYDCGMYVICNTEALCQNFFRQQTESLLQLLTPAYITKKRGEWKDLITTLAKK

[4] = target: T1, Sentrin-specific protease 6; assay: SAR Analysis of small molecule inhibitors of Sentrin-specific protease 6 (SENP6) using a Luminescent assay. [Related pubchem assays (depositor defined):AID2582, AID2599]; type: functional
[5] = target: T2, Sentrin-specific protease 7; assay: SENP7 protease inhibitors, SAR follow-up, biochemical, luminescence (AID 504497); type: functional
Caspase-3 [6] = target: T4, Caspase-3 (Homo sapiens, UniProt P42574); type: functional
T4 sequence (P42574 whole entry): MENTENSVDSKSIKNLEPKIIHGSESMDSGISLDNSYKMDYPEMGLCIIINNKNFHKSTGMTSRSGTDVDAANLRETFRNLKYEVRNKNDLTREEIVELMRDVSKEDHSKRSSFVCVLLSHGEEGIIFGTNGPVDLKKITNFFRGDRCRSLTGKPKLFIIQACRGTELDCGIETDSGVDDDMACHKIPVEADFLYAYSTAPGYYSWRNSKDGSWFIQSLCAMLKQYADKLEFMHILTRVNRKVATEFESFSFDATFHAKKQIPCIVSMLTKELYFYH

[7] = target: T3, Sentrin-specific protease 8; type: functional
Caspase-3 [8] = target: T4, Caspase-3; assay: SAR Analysis of small molecule inhibitors of Sentrin-specific proteases (SENPs) using a Caspase-3 Selectivity assay. [Related pubchem assays (depositor defined):AID2540, AID2599, AID434973, AID489001]; type: functional
Phospholipase A2 = Phospholipase A2 (Homo sapiens, UniProt P04054); type: functional;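 also: confirmatory dose-response counterscreen on phospholipase A2, testing hits that came from an ultra-high-throughput screen for ATG4B inhibitors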
Sequence of Phospholipase A2 (P04054 whole entry): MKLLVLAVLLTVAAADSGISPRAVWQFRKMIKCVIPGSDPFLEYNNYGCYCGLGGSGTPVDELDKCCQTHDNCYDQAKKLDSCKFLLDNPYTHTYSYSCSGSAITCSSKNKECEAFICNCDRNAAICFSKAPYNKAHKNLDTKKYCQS

Cysteine protease ATG4B = target: T5, Cysteine protease ATG4B (Homo sapiens, UniProt Q9Y4P1); type: functional;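 also: Fluorescence-based dose-response confirmation assay measuring inhibition of ATG4B activity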
T5 sequence (Q9Y4P1 whole entry): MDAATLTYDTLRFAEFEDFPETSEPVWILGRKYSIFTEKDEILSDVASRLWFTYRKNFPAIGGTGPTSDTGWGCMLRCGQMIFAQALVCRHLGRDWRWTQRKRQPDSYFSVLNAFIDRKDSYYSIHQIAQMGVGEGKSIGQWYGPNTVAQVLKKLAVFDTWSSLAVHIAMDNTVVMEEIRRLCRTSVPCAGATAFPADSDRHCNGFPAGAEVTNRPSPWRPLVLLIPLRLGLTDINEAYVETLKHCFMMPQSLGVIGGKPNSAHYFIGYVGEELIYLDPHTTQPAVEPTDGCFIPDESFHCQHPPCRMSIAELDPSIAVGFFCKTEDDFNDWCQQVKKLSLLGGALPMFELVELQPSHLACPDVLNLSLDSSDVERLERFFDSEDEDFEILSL

Caspase-3 [9] = target: T4, Caspase-3; assay: caspase-3 inhibitors as off-family protease, SAR follow-up, selectivity assay for SENP protease inhibitor project, biochemical, luminescence, set 2 (AID 588599); type: functional
[10] = target: T3, Sentrin-specific protease 8; assay: SENP8 protease inhibitors, SAR follow-up, biochemical, luminescence, set 2 (AID 588601); type: functional
Beta Lactamase = Beta Lactamase (Pseudomonas aeruginosa, UniProt Q932Y6); assay: beta-lactamase reporter inhibitor potency, dose response, artefact control for TLR9-MyD88 binding inhibitor project, BLA reporter cells, FRET fluorescence (AID 588341); type: cell-based;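 also: cell based assay in CHO-K1 cells stably expressing beta-lactamase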
Sequence of Beta Lactamase (Q932Y6 whole entry, the tested form may be a part): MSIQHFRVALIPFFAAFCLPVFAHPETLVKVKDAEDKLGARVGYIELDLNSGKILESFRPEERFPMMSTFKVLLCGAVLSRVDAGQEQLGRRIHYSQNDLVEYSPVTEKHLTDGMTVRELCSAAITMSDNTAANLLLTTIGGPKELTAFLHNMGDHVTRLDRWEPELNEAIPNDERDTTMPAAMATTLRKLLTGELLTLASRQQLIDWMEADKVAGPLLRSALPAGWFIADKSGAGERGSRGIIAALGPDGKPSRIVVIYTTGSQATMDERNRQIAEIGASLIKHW

CHO = assay: cytotoxicity in TLR9-MyD88 CHO cells, dose response, cytotoxicity control for TLR9-MyD88 binding inhibitor project, cell-based, luminescence (AID 588339); type: functional, hamster; details: Cricetulus griseus;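 also: CHO cells stably coexpressing TLR9 and MyD88 fusions from primary screen; compound exposure lasted 48 hours before viability readout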

IC50 [1]: > 100 µM (inactive) | IC50 [2]: 3.75 µM (active) | IC50 [4]: > 99 µM (inactive) | IC50 [5]: 4.45 µM (active) | IC50 (Caspase-3 [6]): 22.1 µM (active) | IC50 (Caspase-3 [8]): 8.29 µM (active)
Compound: O=C(Nc1ccc(Br)cc1)c1ccc2c(c1)OCO2
IC50 [3]: > 99 µM (inactive) | IC50 [7]: > 100 µM (inactive)

IC50 (Phospholipase A2): 5.99 µM (active) | IC50 (Cysteine protease ATG4B): 11.8 µM (active)
Compound: CC(C)c1ccc(NC2CCCN(C(=O)c3[nH]nc4c3CCC4)C2)cc1 (configuration not stated)

IC50 (Caspase-3 [9]): 2.53 µM (active) | IC50 [4]: 25 µM (active) | IC50 (Caspase-3 [8]): 11 µM (active)
Compound: Cc1ccc(C(=O)Nc2nc3ccc(Cl)cc3s2)o1
IC50 [10]: 1.65 µM (active) | IC50 [3]: 3 µM (active)

Compound: COc1ccc(/C=N/Nc2ccc([N+](=O)[O-])cc2)cc1O
IC50 (Beta Lactamase): 10.7 µM (inactive) | IC50 (CHO): 45.1 µM (inactive)
